Laboratory results published in paper PMC8185074, “Anchor extension: a structure-guided approach to design cyclic peptides targeting enzyme active sites” (Nature Communications, 2021).
Peptide text beside a SMILES is read from it.

How the values were obtained:
Format in all cases: biochemical
HDAC8 = molecular target: T1, HDAC8 (Homo sapiens, UniProt Q9BY41); assay: HDAC8 inhibition, full IC50 measurement (Reaction Biology; fluorogenic p53 peptide RHKK(Ac)AMC); details: t1/t2 replicates
T1 construct: purchased Reaction Biology Corporation (assay run by the CRO)
T1 sequence (Q9BY41 1-377): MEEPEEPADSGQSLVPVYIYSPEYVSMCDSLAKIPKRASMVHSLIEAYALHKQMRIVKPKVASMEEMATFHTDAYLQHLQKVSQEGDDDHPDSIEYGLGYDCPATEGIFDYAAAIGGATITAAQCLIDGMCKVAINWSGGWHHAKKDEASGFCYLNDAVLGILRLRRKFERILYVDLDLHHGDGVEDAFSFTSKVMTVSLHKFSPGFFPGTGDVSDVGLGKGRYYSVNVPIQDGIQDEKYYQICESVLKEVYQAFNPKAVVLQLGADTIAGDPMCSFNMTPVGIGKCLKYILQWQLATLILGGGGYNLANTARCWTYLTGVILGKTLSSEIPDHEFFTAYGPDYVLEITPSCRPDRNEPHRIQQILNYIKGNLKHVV
In short: (§1)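 Deacetylation of 50 μM RHKK(Ac)AMC is measured after 1 h at 30 °C in pH 8.0 Tris buffer (1% DMSO, 1 mg/ml BSA). Developer ends the reaction; the post-plateau 360/460 nm signal is fitted to IC50, averaging replicate measurements.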

HDAC1 = molecular target: T2, HDAC1 (Homo sapiens, UniProt Q13547); assay: HDAC1 inhibition, full IC50 measurement (Reaction Biology; fluorogenic p53 peptide RHKK(Ac)AMC); details: t1/t2 replicates
T2 construct: purchased Reaction Biology Corporation (assay run by the CRO)
T2 sequence (Q13547 whole entry): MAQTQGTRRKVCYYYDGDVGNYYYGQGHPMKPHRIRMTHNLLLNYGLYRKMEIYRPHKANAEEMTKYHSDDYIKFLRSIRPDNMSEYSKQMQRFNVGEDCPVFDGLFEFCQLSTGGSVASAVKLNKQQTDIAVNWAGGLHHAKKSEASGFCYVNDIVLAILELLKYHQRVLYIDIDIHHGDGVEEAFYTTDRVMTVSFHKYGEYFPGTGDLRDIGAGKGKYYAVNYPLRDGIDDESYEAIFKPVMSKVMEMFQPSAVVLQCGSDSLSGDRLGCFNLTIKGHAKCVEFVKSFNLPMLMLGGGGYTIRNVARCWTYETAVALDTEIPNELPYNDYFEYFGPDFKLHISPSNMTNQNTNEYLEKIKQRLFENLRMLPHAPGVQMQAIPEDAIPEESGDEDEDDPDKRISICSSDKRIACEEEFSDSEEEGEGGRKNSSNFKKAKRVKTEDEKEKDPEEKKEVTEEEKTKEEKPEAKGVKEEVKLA
In short: as §1

HDAC2 = molecular target: T3, HDAC2 (Homo sapiens, UniProt Q92769); assay: HDAC2 inhibition, full IC50 measurement (Reaction Biology; fluorogenic p53 peptide RHKK(Ac)AMC)
T3 construct: purchased Reaction Biology Corporation (assay run by the CRO)
T3 sequence (Q92769 whole entry): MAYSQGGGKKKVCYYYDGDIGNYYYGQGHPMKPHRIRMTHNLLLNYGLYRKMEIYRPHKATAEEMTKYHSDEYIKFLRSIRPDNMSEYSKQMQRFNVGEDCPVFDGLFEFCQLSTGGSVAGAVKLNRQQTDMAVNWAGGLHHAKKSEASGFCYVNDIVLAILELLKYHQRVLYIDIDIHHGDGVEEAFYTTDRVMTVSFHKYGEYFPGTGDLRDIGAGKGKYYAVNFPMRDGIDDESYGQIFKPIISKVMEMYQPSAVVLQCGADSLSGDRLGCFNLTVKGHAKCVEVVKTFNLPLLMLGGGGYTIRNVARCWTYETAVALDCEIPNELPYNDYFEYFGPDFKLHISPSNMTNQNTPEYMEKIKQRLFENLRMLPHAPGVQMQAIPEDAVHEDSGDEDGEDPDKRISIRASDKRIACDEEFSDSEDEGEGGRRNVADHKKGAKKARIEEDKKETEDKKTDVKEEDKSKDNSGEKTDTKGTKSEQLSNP
In short: as §1

[1] = peptide conc. 1.00E-05 M, listed as des3.1.0_t1
[2] = peptide conc. 1.00E-05 M, listed as des3.1.0_t2
[3] = peptide conc. 1.11E-06 M, listed as des3.1.0_t1
[4] = peptide conc. 1.11E-06 M, listed as des3.1.0_t2
[5] = peptide conc. 1.23E-07 M, listed as des3.1.0_t1
[6] = peptide conc. 1.23E-07 M, listed as des3.1.0_t2
[7] = peptide conc. 1.37E-08 M, listed as des3.1.0_t1
[8] = peptide conc. 1.37E-08 M, listed as des3.1.0_t2
[9] = peptide conc. 1.52E-09 M, listed as des3.1.0_t1
[10] = peptide conc. 1.52E-09 M, listed as des3.1.0_t2
[11] = peptide conc. 3.33E-06 M, listed as des3.1.0_t1
[12] = peptide conc. 3.33E-06 M, listed as des3.1.0_t2
[13] = peptide conc. 3.70E-07 M, listed as des3.1.0_t1
[14] = peptide conc. 3.70E-07 M, listed as des3.1.0_t2
[15] = peptide conc. 4.12E-08 M, listed as des3.1.0_t1
[16] = peptide conc. 4.12E-08 M, listed as des3.1.0_t2
[17] = peptide conc. 4.57E-09 M, listed as des3.1.0_t1
[18] = peptide conc. 4.57E-09 M, listed as des3.1.0_t2
[19] = peptide conc. 5.08E-10 M, listed as des3.1.0_t1
[20] = peptide conc. 5.08E-10 M, listed as des3.1.0_t2

`N=C(N)NCCC[C@H]1NC(=O)[C@@H]2CCCN2C(=O)[C@H](CO)NC(=O)[C@@H](Cc2c[nH]cn2)NC(=O)[C@H](CCCCCS)NC(=O)[C@H](CCCCN)NC(=O)[C@H](Cc2ccc(O)cc2)NC(=O)[C@H]2CCCN2C(=O)[C@@H](CCC(N)=O)NC1=O` [des3.1.0, SHA-dHis-Ser-Pro-dArg-dGln-dPro-Tyr-Lys] (HELM PEPTIDE1{K.[O=C([C@H](CCCCCS)N[*:1])[*:2]].[dH].S.P.[dR].[dQ].[dP].Y}$PEPTIDE1,PEPTIDE1,1:R1-9:R2$$$V2.0) was tested, and the “HDAC8 activity raw data (signal)” value (HDAC8; [1]) was 177071, the “HDAC8 activity raw data (signal)” value (HDAC8; [2]) was 217357 and the “HDAC8 activity raw data (signal)” value (HDAC8; [3]) was 702584. The “HDAC8 activity raw data (signal)” value (HDAC8; [4]) was 678372, the “HDAC8 activity raw data (signal)” value (HDAC8; [5]) was 829409 and the “HDAC8 activity raw data (signal)” value (HDAC8; [6]) was 942877. The “HDAC8 activity raw data (signal)” value (HDAC8; [7]) was 914161, the “HDAC8 activity raw data (signal)” value (HDAC8; [8]) was 1065224 and the “HDAC8 activity raw data (signal)” value (HDAC8; [9]) was 932207. The “HDAC8 activity raw data (signal)” value (HDAC8; [10]) was 1002240, the “HDAC8 activity raw data (signal)” value (HDAC8; [11]) was 396779 and the “HDAC8 activity raw data (signal)” value (HDAC8; [12]) was 364112. The “HDAC8 activity raw data (signal)” value (HDAC8; [13]) was 821171, the “HDAC8 activity raw data (signal)” value (HDAC8; [14]) was 831364 and the “HDAC8 activity raw data (signal)” value (HDAC8; [15]) was 888545. The “HDAC8 activity raw data (signal)” value (HDAC8; [16]) was 997244, the “HDAC8 activity raw data (signal)” value (HDAC8; [17]) was 750196 and the “HDAC8 activity raw data (signal)” value (HDAC8; [18]) was 946901. For the same molecule, the “HDAC8 activity raw data (signal)” value (HDAC8; [19]) was 807432, the “HDAC8 activity raw data (signal)” value (HDAC8; [20]) was 990498 and the “HDAC1 activity raw data (signal)” value (HDAC1; [1]) was 22305. For the same molecule, the “HDAC1 activity raw data (signal)” value (HDAC1; [2]) was 40732, the “HDAC1 activity raw data (signal)” value (HDAC1; [3]) was 248828 and the “HDAC1 activity raw data (signal)” value (HDAC1; [4]) was 188355. The “HDAC1 activity raw data (signal)” value (HDAC1; [5]) was 589648, the “HDAC1 activity raw data (signal)” value (HDAC1; [6]) was 563314 and the “HDAC1 activity raw data (signal)” value (HDAC1; [7]) was 723592. For the same molecule, the “HDAC1 activity raw data (signal)” value (HDAC1; [8]) was 777320, the “HDAC1 activity raw data (signal)” value (HDAC1; [9]) was 783325 and the “HDAC1 activity raw data (signal)” value (HDAC1; [10]) was 856547. The “HDAC1 activity raw data (signal)” value (HDAC1; [11]) was 76346, the “HDAC1 activity raw data (signal)” value (HDAC1; [12]) was 86885 and the “HDAC1 activity raw data (signal)” value (HDAC1; [13]) was 352482. The “HDAC1 activity raw data (signal)” value (HDAC1; [14]) was 387684, the “HDAC1 activity raw data (signal)” value (HDAC1; [15]) was 725312 and the “HDAC1 activity raw data (signal)” value (HDAC1; [16]) was 693516. The “HDAC1 activity raw data (signal)” value (HDAC1; [17]) was 787632, the “HDAC1 activity raw data (signal)” value (HDAC1; [18]) was 874002 and the “HDAC1 activity raw data (signal)” value (HDAC1; [19]) was 778120. For the same molecule, the “HDAC1 activity raw data (signal)” value (HDAC1; [20]) was 831348, the “HDAC2 activity raw data (signal)” value (HDAC2; Conc. 1.00E-05 M, t1) was 59408 and the “HDAC2 activity raw data (signal)” value (HDAC2; Conc. 1.00E-05 M, t2) was 72667. The “HDAC2 activity raw data (signal)” value (HDAC2; Conc. 1.11E-06 M, t1) was 433904, the “HDAC2 activity raw data (signal)” value (HDAC2; Conc. 1.11E-06 M, t2) was 343376 and the “HDAC2 activity raw data (signal)” value (HDAC2; Conc. 1.23E-07 M, t1) was 657996. The “HDAC2 activity raw data (signal)” value (HDAC2; Conc. 1.23E-07 M, t2) was 873444, the “HDAC2 activity raw data (signal)” value (HDAC2; Conc. 1.37E-08 M, t1) was 729280 and the “HDAC2 activity raw data (signal)” value (HDAC2; Conc. 1.37E-08 M, t2) was 826208. The “HDAC2 activity raw data (signal)” value (HDAC2; Conc. 1.52E-09 M, t1) was 589537, the “HDAC2 activity raw data (signal)” value (HDAC2; Conc. 1.52E-09 M, t2) was 821627 and the “HDAC2 activity raw data (signal)” value (HDAC2; Conc. 3.33E-06 M, t1) was 217345. The “HDAC2 activity raw data (signal)” value (HDAC2; Conc. 3.33E-06 M, t2) was 176595, the “HDAC2 activity raw data (signal)” value (HDAC2; Conc. 3.70E-07 M, t1) was 565181 and the “HDAC2 activity raw data (signal)” value (HDAC2; Conc. 3.70E-07 M, t2) was 599514. The “HDAC2 activity raw data (signal)” value (HDAC2; Conc. 4.12E-08 M, t1) was 715436, the “HDAC2 activity raw data (signal)” value (HDAC2; Conc. 4.12E-08 M, t2) was 918076 and the “HDAC2 activity raw data (signal)” value (HDAC2; Conc. 4.57E-09 M, t1) was 697486. For the same molecule, the “HDAC2 activity raw data (signal)” value (HDAC2; Conc. 4.57E-09 M, t2) was 737052, the “HDAC2 activity raw data (signal)” value (HDAC2; Conc. 5.08E-10 M, t1) was 616136 and the “HDAC2 activity raw data (signal)” value (HDAC2; Conc. 5.08E-10 M, t2) was 674996.
